Values quoted from earlier work in patent US20210198628A1, “BASAL MEDIA FOR GROWING NK-92 CELLS” (NantKwest, Inc., priority 2018, published 2021).

Conditions: in vivo

CC[C@H](C(=O)N1CCCC[C@H]1C(=O)O[C@H](CCc1ccc(OC)c(OC)c1)c1cccc(OCC(=O)NCCNC(=O)COc2cccc([C@@H](CCc3ccc(OC)c(OC)c3)OC(=O)[C@@H]3CCCCN3C(=O)[C@@H](CC)c3cc(OC)c(OC)c(OC)c3)c2)c1)c1cc(OC)c(OC)c(OC)c1 [AP1903]
tolerability in clinical studies: well tolerated
